Like-named read-outs stand apart in the source and are kept apart here.
Experiments:
[1] = test system: UMUC-3 cell lines; test: Drug treatments of cancer cell clusters in 3D model with bacteria outside tissue; cell viability test (Hoechst/Calcein-AM); format: cell-based; details: Homo sapiens, UMUC3, 24 h; for IC50: 3D model with bacteria outside tissue, 24 hrs of incubation, read-out: IC50 of doxorubicin for cancer cells
Description: 70% (v/v) ethanol (EtOH; UNI-CHEM) was added to channels to sterilize the platform and remove air bubbles. 1× phosphate-buffered saline (PBS; Gibco, #10010049, USA) was used to remove residual EtOH, and the microwell layer was then coated with 50 μL of 2.5% bovine serum albumin (v/v) (BSA) (Sigma-Aldrich, #A9418-5G, Germany) to prevent cell adhesion to the channels. The capacity of each channel was 150 μL. UMUC-3 cell clusters in the microchannels could be stained in situ with Hoechst dye (Invitrogen, #H1399, USA) for 30 min to visualize cell nuclei or biofilm. Imaging and downstream analysis were carried out in situ after 1 h, 9 h, and 24 h of infection. UMUC-3 cell clusters without bacteria were used as negative controls. The bacterial suspension was centrifuged for 10,000 rpm. LB supernatant was removed and replaced with antibiotic-free MEM a (10% supplemented with FBS) at the required multiplicity of infection (MOI) rates (500:1 or 1:1). Control groups corresponding to 0 h time points were obtained before the introduction of bacteria.
Nuclear dye Hoechst (blue) and Calcein-AM (green) Invitrogen, #C3100MP, USA) were added to the channels at a final concentration of 20 μM. Clusters were imaged after 30 min incubation at 37° C. Using ImageJ for analysis. We enumerated only cancer cells within the area range of 25-250 μm^2 and circularity 0.3-1.0 to ensure that smaller bacteria were excluded from the count.
UMUC-3 cells were seeded into a PIEB device at 35×10^3 cells/channel concentration and cultured at 37° C. overnight. Then UPEC was suspended in PBS and added into each channel at the MOI of 1:1. Then the bacteria and cells were incubated at 37° C. for 1 h in the device. TBPP was added into the channel and followed by light treatment for 30 mins. The medium was replaced by fresh RPMI with DOX (Sigma-Aldrich, #D1515-10MG, 25316-40-9, China). After 24 h incubation, cells were dyed with Hoechst and Calcein AM for imaging.

[2] = ROS generation test with DCFH-DA under white light; details: photosensitizer 10 μM, DCFH-DA 40 μM
Description: Dichlorodihydrofluorescein diacetate (DCFH-DA, Sigma-Aldrich #D6665-5G, 76-54-0, China) was used as the ROS indicator. 40 μL of DCFH-DA stock solution (1 mM) was added into 2 mL of different photosensitizers suspension (10 μM) including TBPPs and chlorin e6 (Sigma-Aldrich #COM448659756-100MG, QC-6466, USA). Then white light ([…]) was used to irradiate, and the emission of DCFD-DA at 525 nm was recorded at various irradiation times.

[3] = test system: UPEC; test: Fluorescent imaging of bacteria by TBPP; format: cell-based, uropathogenic E. coli (UPEC) strain UTI89
Description: A single colony of UPEC on solid culture medium was transferred to 5 mL of Luria-Bertani (LB) medium and incubated at 37° C. for overnight. After reaching the logarithmic phase, bacteria were harvested by centrifuging at 10000 g for 3 min. After removing the supernatant, bacteria were diluted in ABTGC (ABT minimal medium supplemented with […]) to 1×10^5/mL. 300 μL of bacteria solution were added to the culture dish. Then, 300 μL dye solution in saline at appropriate concentration was added into the culture dish for 1 h and directly imaged by Leica TCS SP8 MP confocal microscope (Germany).

[4] = test system: human bladder carcinoma cell line (UMUC-3); test: Cancer cell staining by TBPP; format: cell-based; details: TBPP 1 μM
Description: The human bladder carcinoma cell line UMUC-3 (CRL-1749, ATCC) were cultured in modified Minimum Essential Medium Alpha (MEM a; Gibco, #12561049, USA) supplemented with 10% (v/v) fetal bovine serum (FBS; Gibco, #10270106, USA) and 1% (v/v) penicillin-streptomycin (Gibco, #15140122, USA) at 37° C. with 5% CO2 in a humidified environment. Cells were cultured in sterile T25 or T75 flasks (Jet BIOFIL, China), with growth media replaced every 48 h. Cultures were passaged at 80% confluence.
[…] of TBPP and 10 μM of Calcein-AM were added to the channels. Clusters were then imaged after 60 min incubation at 37° C. Z-stack were recorded via confocal microscope.

[5] = Photophysical properties (absorption and photoluminescence spectra); format: physicochemical
Description: All chemicals and reagents were commercially available and used as received without further purification. ^1H and ^13C NMR spectra were measured on a Bruker ARX 400 NMR spectrometer using CDCl3 and DMSO-d6 as solvents, and tetramethylsilane (TMS; 6=0 ppm) was chosen as the internal reference. High-resolution mass spectra (HRMS) were obtained on a Finnigan MAT TSQ 7000 mass spectrometer system operated in a matrix-assisted laser desorption and ionization-time-of-flight (MALDI-TOF) mode. Absorption spectra were measured on a Milton Roy Spectronic 3000 array spectrophotometer. Steady-state photoluminescence (PL) spectra were measured on a PerkinElmer spectrofluorometer LS 55.

Row | Structure (SMILES) | viability at 5 µM ([1]; read-out: viability of cancer cells) [%] | ROS generation (change of DCFH-DA fluorescence I/I0 with irradiation time) [2] | fluorescent signal of UPEC biofilm ([3]; TBPP 1 μM, biofilm compared with planktonic bacteria) | NIR fluorescent signal on UPEC (monolayer model) ([3]; TBPP 10 μM, 1 h to 24 h) | fluorescence in cancer cell staining [4] | Stokes shift (Δv) [5] [nm] | absorption maximum ([5]; in DMSO, 10 μM) [nm] | emission maximum ([5]; in DMSO, 10 μM) [nm] | IC50 ([1]; doxorubicin alone) [µM] | IC50 ([1]; doxorubicin combined with TBPP) [µM]
1 | C[N+](C)(C)CCC[n+]1ccc(-c2ccc(-c3ccc(N(c4ccccc4)c4ccccc4)cc3)c3nsnc23)cc1.[Br-].[Br-] [TBPP, 4-(7-(4-(diphenylamino)phenyl)benzo[c][1,2,5]thiadiazol-4-yl)-1-(3-(trimethylammonio)propyl)pyridin-1-ium bromide] | ~60 | much greater change than commercial photosensitizer, Ce6 | much higher signal than the planktonic bacteria | targeting ability to UPEC | negligible fluorescence | 198 | 492 | 690 | – | –
2 | COc1cccc2c1C(=O)c1c(O)c3c(c(O)c1C2=O)C[C@@](O)(C(=O)CO)C[C@@H]3O[C@H]1C[C@H](N)[C@H](O)[C@H](C)O1 [doxorubicin] | – | – | – | – | – | – | – | – | 8 | 5
